Assay results from patent publication US11739120B2, “Water soluble salts of lipidated peptides and methods for preparing and using the same” (Bridge Biotherapeutics, Inc., priority 2018, dated 2023).
Residues, ends and D or L forms follow the SMILES beside them. *: point of attachment. Palmitoyl = CCCCCCCCCCCCCCCC(=O)*

Experiments:
Format in all cases: physicochemical
[1] = Solubility of amorphous, Form A and Form E of Compound I-1 in water (shaken at 25° C., HPLC); settings: for Final pH: mother liquor
Method: The solubility of amorphous, Form A or E of Compound I-1 in water was further studied. Specifically, about 250 mg Compound I-1 in amorphous, Forms A and E were each suspended in a 2 mL HPLC vial with 0.9 mL of water. Each suspension was then shaken at 25° C. under 1000 rpm. The suspensions were analyzed at 1 h and 24 h. In particular, at either the 1 h or 24 h time point, the slurries were centrifuged and analyzed by HPLC. The pH values of the mother liquors were measured, and the residues were characterized by XRPD.

[2] = Storage stability of formulations of amorphous Compound I-1; settings: powder from capsules; 6 month at 25° C./60% RH or 40° C./75% RH
Method: This enteric coated capsule formulation was tested for stability and dissolution. […] Thus, this formulation can be storage stable.
This capsule formulation was also tested for stability and dissolution. […] Thus, Formulation B is also storage stable.
This capsule formulation was also tested for stability and dissolution.
This tablet formulation was also tested for stability and dissolution.

[3] = Stabilities of amorphous Compound I-1 (ICH guideline, XRPD)
Method: Stabilities of amorphous Compound I-1 were also conducted according to ICH guideline.

[4] = Approximate solubility of Compound I-1 (amorphous) in different solvents (manual dilution, visual observation); settings: ambient laboratory temperature
Method: In this Example, approximate solubility tests of Compound I-1 (amorphous) were conducted in the different solvents at ambient laboratory temperature. The solubility was also tested by manual dilution combined with visual observation. In particular, a known amount of Compound I-1 was weighed and added to a vial. A known amount of solvent was gradually added to the vial with constant stirring. The solvent addition was kept at a very slow rate to minimize any excess solvent beyond what is needed to fully dissolve the solids. In order to cross-check the solubility, a small amount of Compound I-1 was added to the vial to confirm that the solution became turbid.

CCCCCCCCCCCCCCCC(=O)N1CCC[C@H]1C(=O)N1CCC[C@H]1C(=O)NCC(=O)N[C@@H](Cc1ccc(O)cc1)C(=O)[O-].[Na+] [Compound I-1 (Amorphous), sodium palmitoyl-L-prolyl-L-prolylglycyl-L-tyrosinate] (Palmitoyl-PPGY-OH)
Final pH ([1]; water, 25° C., time point 1 hour): 9.05
Final pH ([1]; water, 25° C., time point 24 hours): 9.03
XRPD pattern (wet) ([1]; residue of the suspension in water, 25° C., time point 24 hours): Mostly D
Solubility at 25° C. ([1]; water, time point 1 hour): 239.1 mg/mL
solubility at 1 h ([1]; water, time point 1 hour): > 200 mg/mL
Solubility at 25° C. ([1]; water, time point 24 hours): 180.1 mg/mL
solubility at 24 h ([1]; water, time point 24 hours): ~180 mg/mL
crystalline conversion (X-ray diffractograms, FIG. 12) [2]: no crystalline conversion was observed
form transformation (XRPD) ([3]; all tested conditions (40° C./75% RH with protection from moisture, 60° C., ambient) except high humidity): no form transformation
form transformation (XRPD) ([3]; high humidity condition for 1 week): could be transferred into Form A
solubility ([4]; 1,4-Dioxane): 33.3 to 50 mg/mL
solubility ([4]; 1-butanol): 50 to 100 mg/mL
solubility ([4]; 2-Methyl Tetrahydrofuran): > 100 mg/mL
solubility ([4]; Acetone): < 1 mg/mL
solubility ([4]; Acetone:H2O (1:2)): 50 to 100 mg/mL
solubility ([4]; Acetonitrile): < 1 mg/mL
solubility ([4]; Acetonitrile:H2O (1:1)): 50 to 100 mg/mL
solubility ([4]; Cyclohexane): < 1 mg/mL
solubility ([4]; DMF): 20 to 33.3 mg/mL
solubility ([4]; DMSO): 50 to 100 mg/mL
solubility ([4]; Ethanol): 50 to 100 mg/mL
solubility ([4]; Ethanol:H2O (1:1)): 50 to 100 mg/mL
solubility ([4]; Ethanol:H2O (3:1)): 50 to 100 mg/mL
solubility ([4]; Ethyl acetate): < 1 mg/mL
solubility ([4]; Heptane): < 1 mg/mL
solubility ([4]; Isopropyl acetate): < 1 mg/mL
solubility ([4]; Isopropyl alcohol): 50 to 100 mg/mL
solubility ([4]; Methanol): > 100 mg/mL
solubility ([4]; Methanol:H2O (1:1)): > 100 mg/mL
solubility ([4]; Methanol:H2O (3:1)): > 100 mg/mL
solubility ([4]; Methyl ethyl ketone): 3.3 to 5 mg/mL
solubility ([4]; Methyl isobutyl ketone): 1.2 to 1.4 mg/mL
solubility ([4]; Methyl t-butyl ether): < 1 mg/mL
solubility ([4]; N-methyl pyrrolidone): 50 to 100 mg/mL
solubility ([4]; Tetrahydrofuran): > 100 mg/mL
solubility ([4]; Tetrahydrofuran:H2O (1:1)): 50 to 100 mg/mL
solubility ([4]; Toluene): 50 to 100 mg/mL
solubility ([4]; Water): > 100 mg/mL
